Test results as given in PMC10974603, “Cytotoxicity and Multi-Enzyme Inhibition of Nepenthes miranda Stem Extract on H838 Human Non-Small Cell Lung Cancer Cells and RPA32, Elastase, Tyrosinase, and Hyaluronidase Proteins” (Plants, 2024).

Columns and labels:
[1] = target: T1, elastase (Porcine pancreatic elastase) (Sus scrofa, UniProt P00772); assay: absorbance […] nm, p-nitroanilide release; format: biochemical
T1 construct: gene CELA1; native pancreatic enzyme, commercial preparation; mature active enzyme
T1 sequence (P00772 27-266): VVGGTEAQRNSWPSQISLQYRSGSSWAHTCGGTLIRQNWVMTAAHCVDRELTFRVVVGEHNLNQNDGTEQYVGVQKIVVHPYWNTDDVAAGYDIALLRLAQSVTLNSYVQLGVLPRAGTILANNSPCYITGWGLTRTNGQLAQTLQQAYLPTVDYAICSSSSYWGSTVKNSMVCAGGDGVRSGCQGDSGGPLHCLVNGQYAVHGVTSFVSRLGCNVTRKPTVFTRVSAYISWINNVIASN

[2] = target: T2, hyaluronidase from bovine testes type I-S (Bos taurus, UniProt Q2YDK3); assay: turbidity with acidic albumin, absorbance […] nm; format: biochemical; details: hyaluronic acid substrate (0.03% stock); phosphate pH 5.35; 37 °C; 45 min; preincubation at pH 7
T2 construct: gene SPAM1; native bovine testes enzyme, commercial type I-S preparation
T2 sequence (Q2YDK3 36-553): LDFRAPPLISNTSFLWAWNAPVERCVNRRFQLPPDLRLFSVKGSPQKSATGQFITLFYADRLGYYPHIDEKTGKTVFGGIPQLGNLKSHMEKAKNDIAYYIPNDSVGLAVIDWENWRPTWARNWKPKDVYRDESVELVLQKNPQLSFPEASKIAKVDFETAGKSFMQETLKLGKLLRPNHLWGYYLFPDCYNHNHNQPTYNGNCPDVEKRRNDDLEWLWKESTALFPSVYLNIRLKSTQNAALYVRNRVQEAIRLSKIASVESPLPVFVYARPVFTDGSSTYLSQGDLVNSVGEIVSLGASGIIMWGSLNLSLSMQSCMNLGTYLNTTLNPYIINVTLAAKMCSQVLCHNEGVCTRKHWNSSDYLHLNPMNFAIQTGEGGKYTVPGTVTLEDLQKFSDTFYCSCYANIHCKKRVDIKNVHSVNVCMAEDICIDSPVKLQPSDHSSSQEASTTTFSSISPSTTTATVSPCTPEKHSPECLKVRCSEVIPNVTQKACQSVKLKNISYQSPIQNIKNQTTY

[3] = target: huRPA32 (human, UniProt P15927 1-270); assay: EMSA; no extract; [Protein]50; 40 mM Tris-HCl pH 7.5, 50 mM NaCl, 37 °C 60 min, DNA 30 fmol/uL; 8% native PAGE in TBE; details: protein: recombinant; tags: N-terminal EF (EcoRI site); label: 5' biotin; single-stranded
Sequence of huRPA32 (P15927 whole entry): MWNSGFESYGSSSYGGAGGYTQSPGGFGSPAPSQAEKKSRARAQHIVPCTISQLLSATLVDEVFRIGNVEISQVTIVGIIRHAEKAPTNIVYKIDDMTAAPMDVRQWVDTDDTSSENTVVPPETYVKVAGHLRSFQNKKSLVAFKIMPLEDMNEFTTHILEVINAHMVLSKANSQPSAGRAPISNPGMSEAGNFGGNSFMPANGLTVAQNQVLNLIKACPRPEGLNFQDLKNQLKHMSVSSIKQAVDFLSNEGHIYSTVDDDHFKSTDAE

Molecule: O=C(O[C@@H]1Cc2c(O)cc(O)cc2O[C@@H]1c1cc(O)c(O)c(O)c1)c1cc(O)c(O)c(O)c1 [EGCG]
- IC50 [1]: 9.62 µM

Molecule: O=c1c(O)c(-c2cc(O)c(O)c(O)c2)oc2cc(O)cc(O)c12 [Myr]
- IC50 [2]: 29.9 µM

Molecule: TTTTTTTTTTTTTTTTTTTTTTTTT (ssDNA) [dT25]
- apparent K (half saturation) [3]: 6.3 ± 0.5 µM
